Data from article PMC9103758 (International Journal of Molecular Sciences, 2022).

Molecular target: T1, hERG K+ channel (Homo sapiens, UniProt Q12809)
T1 construct: expressed in transfected cells; called HEK293
Test: FluxOR thallium flux assay in HEK293T cells expressing hERG
Format: cell-based
Experimental: (C) Summary of dose-response (mean ± S.E., n = 5). […] (F) Summary of dose−response (mean ± S.E., n = 6).
HEK293 cells stably expressing human Kv11.1 (hERG) were cultured in 96-well plates. After 48 h, the cells were incubated at 28 °C for 4 h to increase the membrane expression of hERG. The culture medium was replaced with a 80 μL/well of FluxOR (Invitrogen, Waltham, MA, USA) loading buffer and incubated for 1 h at 37 °C in the dark. After removing the loading buffer, 100 μL of assay buffer was added to each well. […] FluxOR fluorescence (excitation/emission: 490/525 nm) was recorded for 4 s before the addition of 20 μL of stimulus buffer containing thallium ions, and the fluorescence was recorded. FluxOR fluorescence was recorded and analyzed using the FLUOstar Omega microplate reader (BMG Labtech, Ortenberg, Germany) and the MARS Data Analysis Software (BMG Labtech, Ortenberg, Germany). All buffers were prepared according to the manufacturer’s instructions.

T1 sequence (Q12809 whole entry): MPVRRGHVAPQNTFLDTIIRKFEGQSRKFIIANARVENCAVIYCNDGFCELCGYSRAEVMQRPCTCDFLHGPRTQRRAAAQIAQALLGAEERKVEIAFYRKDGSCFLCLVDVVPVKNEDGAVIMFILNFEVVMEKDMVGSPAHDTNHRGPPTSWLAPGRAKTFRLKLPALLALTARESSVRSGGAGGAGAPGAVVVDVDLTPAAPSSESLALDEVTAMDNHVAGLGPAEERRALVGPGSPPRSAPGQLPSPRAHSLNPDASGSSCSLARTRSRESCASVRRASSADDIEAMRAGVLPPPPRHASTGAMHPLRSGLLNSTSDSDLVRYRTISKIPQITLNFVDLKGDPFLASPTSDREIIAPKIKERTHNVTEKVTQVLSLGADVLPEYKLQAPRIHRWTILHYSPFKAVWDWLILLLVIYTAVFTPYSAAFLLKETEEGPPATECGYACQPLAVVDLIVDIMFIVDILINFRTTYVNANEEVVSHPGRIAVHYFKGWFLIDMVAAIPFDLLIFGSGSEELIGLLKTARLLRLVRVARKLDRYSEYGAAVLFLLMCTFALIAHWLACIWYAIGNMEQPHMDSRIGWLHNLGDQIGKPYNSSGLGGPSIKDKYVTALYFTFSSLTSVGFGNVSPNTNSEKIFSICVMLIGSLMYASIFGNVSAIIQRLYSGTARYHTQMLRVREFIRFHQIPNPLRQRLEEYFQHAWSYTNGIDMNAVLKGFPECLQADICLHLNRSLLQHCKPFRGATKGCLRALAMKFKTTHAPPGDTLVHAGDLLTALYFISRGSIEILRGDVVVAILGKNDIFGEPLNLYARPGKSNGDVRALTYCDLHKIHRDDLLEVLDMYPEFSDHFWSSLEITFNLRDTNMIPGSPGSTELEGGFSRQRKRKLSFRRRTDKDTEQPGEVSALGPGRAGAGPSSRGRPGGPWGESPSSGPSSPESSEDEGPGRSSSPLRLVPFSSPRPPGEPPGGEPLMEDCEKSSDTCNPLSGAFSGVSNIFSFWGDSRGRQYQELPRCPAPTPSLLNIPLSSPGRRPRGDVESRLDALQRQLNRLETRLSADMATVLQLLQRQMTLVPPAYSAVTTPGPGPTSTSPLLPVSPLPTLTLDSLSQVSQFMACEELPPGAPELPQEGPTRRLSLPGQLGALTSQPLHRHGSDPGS

COc1cccc(C(c2c(O)c3ccccc3oc2=O)c2c(O)c3ccccc3oc2=O)c1O [VI-116, 3,3′-((2-hydroxy-3-methoxyphenyl)methylene)bis(4-hydroxy-2H-chromen-2-one)]
effect on hERG K+ channel activity (10 μM): minimal inhibitory effect
IC50 (thallium flux, HEK293T cells expressing hERG, n = 6): 89.6 µM
